Experimental data reported in ChEMBL document CHEMBL1131712, “Short synthesis and anti-rhinoviral activity of imidazo[1,2-a]pyridines: the effect of acyl groups at 3-position” (Bioorg Med Chem Lett, 1999).
In brackets after ≈: the same amount, converted by molar mass.

Experiments:
rhinovirus B14 = test: Inhibitory concentration required against Human rhinovirus-14 (HRV-14) using plaque reduction assay; format: functional, organism-based, Enterovirus; settings: Rhinovirus B
[1] = Cellular toxic concentration against Human rhinovirus-14 (HRV-14) using cytopathic effect assay(CPE/XTT); format: organism-based, Enterovirus; settings: read-out: TC50 (the source's name)

| SMILES | IC50 (rhinovirus B14) [mg/L] | CC50 [1] [mg/L] |
| --- | --- | --- |
| CNC(=O)/C=C(\c1ccccc1)c1ccc2nc(N)c(C(=O)c3ccc(F)cc3)n2c1 | 0.37 (≈ 0.893 µM) | 3.97 (≈ 9.58 µM) |
| CNC(=O)/C=C(\c1ccccc1)c1ccc2nc(N)c(C(=O)c3ccccc3)n2c1 | 0.24 (≈ 0.605 µM) | 2.95 (≈ 7.44 µM) |
| CNC(=O)/C=C(\c1ccccc1)c1ccc2nc(N)c(C(C)=O)n2c1 | 2.48 (≈ 7.42 µM) | 22.8 (≈ 68.2 µM) |
| CNC(=O)/C=C(\c1ccccc1)c1ccc2nc(N)c(C(=O)C(C)(C)C)n2c1 | 0.17 (≈ 0.452 µM) | > 10 |
| CC(C)S(=O)(=O)n1c(N)nc2ccc(/C(=N/O)c3ccccc3)cc21 [ENVIROXIME] | 0.045 (≈ 0.126 µM) | – |
